Source: patent US8404692B2, “Pyrimidin-4-yl-3, 4-dihydro-2H-pyrrolo [1,2A] pyrazin-1-one compounds” (Cyclacel Limited, priority 2005, dated 2013)

Key:
A2780 = assay: MTT cytotoxicity assay A2780; assay type: cell-based; details: Homo sapiens; A2780 cells, 96-h MTT
Method: (§1) The compounds of the invention were subjected to a standard cellular proliferation assay using cell lines […] and MiaPaCa (obtained from The European Collection of Cell Cultures). […] C.; Thomas, D. G.; Darling, J. L. Anti Cancer Drugs 1996, 7, 331-8; Loveland, B. E.; Johns, T. G.; Mackay, I. R.; Vaillant, F.; Wang, Z. X.; Hertzog, P. J. Biochemistry International 1992, 27, 501-10). In short: cells were seeded into 96-well plates according to doubling time and incubated overnight at 37° C. […] MTT was made up as a stock of 5 mg/mL in cell media and filter-sterilised. Media was removed from cells followed by a wash with 200 μL PBS. MTT solution was then added at 20 μL per well and incubated in the dark at 37° C. for 4 h. MTT solution was removed and cells again washed with 200 μL PBS. MT dye was solubilised with […] per well of DMSO with agitation. Absorbance was read at 540 nm and data analysed using curve-fitting software (GraphPad Prism version 3.00 for Windows, GraphPad Software, San Diego Calif. USA) to determine IC50 values (concentration of test compound which inhibits cell growth by 50%).

[1] = test system: nuclear phospho-Histone H3 and/or MPM2 staining; assay: Cellomics Arrayscan assay for mitotic index (PH3 and MPM2 staining); assay type: cell-based
Method: The percentage of cells with nuclear phospho-Histone H3 and/or MPM2 staining were determined in 96-well plate assays using the Cellomics Arrayscan Mitotic Index HitKit protocol (Cellomics Inc). Briefly, cells were plated at 10^4 cells per well and incubated for 16-18 h at 37° C. Compounds were added and the cells incubated for the appropriate time before a 15 min fixation in 3.7% formaldehyde in wash buffer (Cellomics Inc.). Cells were permeabilised in 0.2% Triton in wash buffer for 15 min, washed, then incubated with primary antibodies that specifically recognise mitotic epitopes; rabbit anti-phosphohistone H3 (Upstate 06570) or mouse anti-phospho-Ser/Thr-Pro MPM2 (Upstate 05-368). After a 1 h incubation cells were washed and incubated with secondary FITC-conjugated anti-mouse and/or TRITC-conjugated anti-rabbit secondary antibodies (Jackson laboratories) and Hoescht dye. After a further 1 h incubation the cells were washed, then the plate was analysed using a Cellomics Arrayscan II automated fluorescent microscopy system to detect nuclear fluorescent staining. Data for 2000 cells per well were stored and the percentage of cells expressing mitotic epitopes compared to total cells (stained with Hoescht dye) was calculated using the Cellomics mitotic index algorithm.

aurora-A (human) = biological target: T1, aurora-A (human) (Homo sapiens, UniProt O14965); assay: Aurora-A (human) kinase assay; assay type: biochemical; details: read-out: Activity (Aurora A activity, IC50 grading)
T1 construct: purchased Upstate, Dundee, UK
T1 sequence (O14965 1-403): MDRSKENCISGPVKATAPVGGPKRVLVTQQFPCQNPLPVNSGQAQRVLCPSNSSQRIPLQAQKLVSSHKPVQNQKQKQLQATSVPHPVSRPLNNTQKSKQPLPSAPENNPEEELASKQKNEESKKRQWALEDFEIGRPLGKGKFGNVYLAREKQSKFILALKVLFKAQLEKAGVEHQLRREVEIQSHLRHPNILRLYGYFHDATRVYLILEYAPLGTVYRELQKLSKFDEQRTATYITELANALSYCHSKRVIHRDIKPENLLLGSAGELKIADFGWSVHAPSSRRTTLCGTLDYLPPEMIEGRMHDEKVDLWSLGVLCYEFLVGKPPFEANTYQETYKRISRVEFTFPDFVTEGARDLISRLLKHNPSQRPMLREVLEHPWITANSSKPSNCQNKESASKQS
How it was run: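 Radiometric assay measuring [γ-32P] transfer from 100 μM ATP to 500 μM Kemptide by 2-5 ng active human aurora-A, pH 7.5 buffer, 30 min at 30° C. Incorporated label captured on P81 filters and counted by scintillation; IC50 from curve fitting.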

human CDK7/cyclin H = human CDK7/cyclin H (Homo sapiens, UniProt P50613); assay: CDK 7 and 9 assays: CDK7/H; assay type: biochemical; details: in vitro kinase data
Method: The compounds of the invention above were investigated for their ability to inhibit the enzymatic activity of various protein kinases. This was achieved by measurement of incorporation of radioactive phosphate from ATP into appropriate polypeptide substrates. Recombinant protein kinases and kinase complexes were produced or obtained commercially. Assays were performed using 96-well plates and appropriate assay buffers (typically 25 mM β-glycerophosphate, 20 mM MOPS, 5 mM EGTA, 1 mM DTT, 1 mM […], pH 7.4), into which were added 2-4 μg of active enzyme with appropriate substrates. The reactions were initiated by addition of Mg/ATP mix (15 mM MgCl2+100 μM ATP with 30-50 kBq per well of [γ-^32P]-ATP) and mixtures incubated as required at 30° C. Reactions were stopped on ice, followed by filtration through p81 filterplates or GF/C filterplates (Whatman Polyfiltronics, Kent, UK). After washing 3 times with 75 mM aq orthophosphoric acid, plates were dried, scintillant added and incorporated radioactivity measured in a scintillation counter (TopCount, Packard Instruments, Pangbourne, Berks, UK). Compounds for kinase assay were made up as 10 mM stocks in DMSO and diluted into 10% DMSO in assay buffer. Data was analysed using curve-fitting software (GraphPad Prism version 3.00 for Windows, GraphPad Software, San Diego Calif. USA) to determine IC50 values (concentration of test compound which inhibits kinase activity by 50%).
CTD peptide substrate (biotinyl-Ahx-(Tyr-Ser-Pro-Thr-Ser-Pro-Ser)4-NH2; 1-2 mg/mL) and recombinant human CDK7/cyclin H, CDK9/cyclin T1, or CDK9/cyclin K (0.5-2 μg) were incubated for 45 min at 30° C. in the presence of varying amounts of test compound in 20 mM MOPS pH 7.2, 25 mM β-glycerophosphate, 5 mM EGTA, 1 mM DTT, 1 mM sodium vanadate, 15 mM MgCl2, and 100 μM ATP (containing a trace amount of ^32PγATP) in a total volume of 25 μL in a 96-well microtiter plate. […] Microscint 40 scintillation liquid (50 μL) was added to each well, and the amount of ^32P incorporation for each sample was measured using a Packard Topcount microplate scintillation counter.

MiaPaCa = assay: MTT cytotoxicity assay MiaPaCa; assay type: cell-based; details: Homo sapiens, MIA PaCa-2; MiaPaCa cells, 96-h MTT
Method: as §1

Chain of human CDK7/cyclin H (P50613 whole entry): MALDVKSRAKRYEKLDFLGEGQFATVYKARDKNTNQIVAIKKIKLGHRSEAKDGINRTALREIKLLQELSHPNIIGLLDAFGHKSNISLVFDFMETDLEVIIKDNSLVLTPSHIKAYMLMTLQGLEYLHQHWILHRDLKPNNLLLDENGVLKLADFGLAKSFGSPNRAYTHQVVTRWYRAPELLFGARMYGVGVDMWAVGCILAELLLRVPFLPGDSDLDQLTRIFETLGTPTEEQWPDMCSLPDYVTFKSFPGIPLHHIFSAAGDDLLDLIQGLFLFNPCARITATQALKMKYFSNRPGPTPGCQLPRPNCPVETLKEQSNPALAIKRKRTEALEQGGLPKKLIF
Chain of human CDK7/cyclin H (P51946 whole entry partner): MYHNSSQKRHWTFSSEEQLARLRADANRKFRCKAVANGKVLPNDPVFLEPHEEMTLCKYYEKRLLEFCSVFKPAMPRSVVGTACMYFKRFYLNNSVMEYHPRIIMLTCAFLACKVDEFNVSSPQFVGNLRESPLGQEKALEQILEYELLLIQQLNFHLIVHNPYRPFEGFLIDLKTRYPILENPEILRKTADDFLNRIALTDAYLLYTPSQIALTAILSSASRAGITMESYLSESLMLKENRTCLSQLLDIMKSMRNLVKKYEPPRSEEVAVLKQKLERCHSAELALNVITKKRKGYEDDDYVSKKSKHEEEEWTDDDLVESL

Row | Structure (SMILES) | IC50 (aurora-A (human)) | also measured
1 | Cc1c(-c2ccnc(Nc3ccc(N4CCOCC4)cc3)n2)c(C)n2c1C(=O)NCC2 [Example I-2, 6,8-Dimethyl-7-[2-(4-morpholin-4-yl-phenylamino)-pyrimidin-4-yl]-3,4-dihydro-2H-pyrrolo[1,2-a]pyrazin-1-one] | < 1000 nM | IC50 (A2780): 575 nM; IC50 ([1]; IC50 of phosphorylated Histone H3 staining normalised using MPM2 staining, read-out: MI (Cellomics) PH3/MPM2 IC50*): 9200 nM; MI (Cellomics) MPM2 % of Control** ([1]; cells stained with MPM2 Ab after treatment, as % of MPM2 stained cells treated with vehicle (DMSO)): 333%; Ki (human CDK7/cyclin H): 3410 nM; IC50 (MiaPaCa): 1800 nM
2 | Cc1c(-c2ccnc(Nc3ccc(CC(=O)N4CCN(C)CC4)cc3)n2)c(C)n2c1C(=O)NCC2 [Example I-101, 6,8-Dimethyl-7-(2-{4-[2-(4-methyl-piperazin-1-yl)-2-oxo-ethyl]-phenylamino}-pyrimidin-4-yl)-3,4-dihydro-2H-pyrrolo[1,2-a]pyrazin-1-one] | < 100 nM | 
3 | Cc1c(-c2ccnc(Nc3ccc(CC(N)=O)cc3)n2)c(C)n2c1C(=O)NCC2 [Example I-102, 2-{4-[4-(6,8-Dimethyl-1-oxo-1,2,3,4-tetrahydro-pyrrolo[1,2-a]pyrazin-7-yl)-pyrimidin-2-ylamino]-phenyl}-acetamide] | < 100 nM | 
4 | CNC(=O)Cc1ccc(Nc2nccc(-c3c(C)c4n(c3C)CCNC4=O)n2)cc1 [Example I-103, 2-{4-[4-(6,8-Dimethyl-1-oxo-1,2,3,4-tetrahydro-pyrrolo[1,2-a]pyrazin-7-yl)-pyrimidin-2-ylamino]-phenyl}-N-methyl-acetamide] | < 100 nM | 
5 | Cc1c(-c2ccnc(Nc3ccc(CC(=O)N(C)C)cc3)n2)c(C)n2c1C(=O)NCC2 [Example I-104, 2-{4-[4-(6,8-Dimethyl-1-oxo-1,2,3,4-tetrahydro-pyrrolo[1,2-a]pyrazin-7-yl)-pyrimidin-2-ylamino]-phenyl}-N,N-dimethyl-acetamide] | < 1000 nM | 
6 | COCCNC(=O)CCc1cccc(Nc2nccc(-c3c(C)c4n(c3C)CCNC4=O)n2)c1 [Example I-105, 3-{3-[4-(6,8-Dimethyl-1-oxo-1,2,3,4-tetrahydro-pyrrolo[1,2-a]pyrazin-7-yl)-pyrimidin-2-ylamino]-phenyl}-N-(2-methoxy-ethyl)-propionamide] | < 100 nM | 
7 | Cc1c(-c2ccnc(Nc3cccc(CCC(=O)N(C)CCN(C)C)c3)n2)c(C)n2c1C(=O)NCC2 [Example I-106, N-(2-Dimethylamino-ethyl)-3-{3-[4-(6,8-dimethyl-1-oxo-1,2,3,4-tetrahydro-pyrrolo[1,2-a]pyrazin-7-yl)-pyrimidin-2-ylamino]-phenyl}-N-methyl-propionamide] | < 1000 nM | 
8 | Cc1c(-c2ccnc(Nc3cccc(CCC(=O)N(C)CCCN(C)C)c3)n2)c(C)n2c1C(=O)NCC2 [Example I-107, N-(3-Dimethylamino-propyl)-3-{3-[4-(6,8-dimethyl-1-oxo-1,2,3,4-tetrahydro-pyrrolo[1,2-a]pyrazin-7-yl)-pyrimidin-2-ylamino]-phenyl}-N-methyl-propionamide] | < 1000 nM | 
9 | Cc1c(-c2ccnc(Nc3cccc(CCC(=O)N4CCOCC4)c3)n2)c(C)n2c1C(=O)NCC2 [Example I-108, 6,8-Dimethyl-7-{2-[3-(3-morpholin-4-yl-3-oxo-propyl)-phenylamino]-pyrimidin-4-yl}-3,4-dihydro-2H-pyrrolo[1,2-a]pyrazin-1-one] | < 100 nM | 
10 | CC(=O)N1CCN(C(=O)CCc2cccc(Nc3nccc(-c4c(C)c5n(c4C)CCNC5=O)n3)c2)CC1 [Example I-109, 7-(2-{3-[3-(4-Acetyl-piperazin-1-yl)-3-oxo-propyl]-phenylamino}-pyrimidin-4-yl)-6,8-dimethyl-3,4-dihydro-2H-pyrrolo[1,2-a]pyrazin-1-one] | < 1000 nM | 
11 | Cc1c(-c2ccnc(Nc3cccc(CCC(=O)N4CCN(C)CC4)c3)n2)c(C)n2c1C(=O)NCC2 [Example I-110, 6,8-Dimethyl-7-(2-{3-[3-(4-methyl-piperazin-1-yl)-3-oxo-propyl]-phenylamino}-pyrimidin-4-yl)-3,4-dihydro-2H-pyrrolo[1,2-a]pyrazin-1-one] | < 1000 nM | 
12 | Cc1c(-c2ccnc(Nc3cccc(CCC(N)=O)c3)n2)c(C)n2c1C(=O)NCC2 [Example I-111, 3-{3-[4-(6,8-Dimethyl-1-oxo-1,2,3,4-tetrahydro-pyrrolo[1,2-a]pyrazin-7-yl)-pyrimidin-2-ylamino]-phenyl}-propionamide] | < 100 nM | 
13 | CNC(=O)CCc1cccc(Nc2nccc(-c3c(C)c4n(c3C)CCNC4=O)n2)c1 [Example I-112, 3-{3-[4-(6,8-Dimethyl-1-oxo-1,2,3,4-tetrahydro-pyrrolo[1,2-a]pyrazin-7-yl)-pyrimidin-2-ylamino]-phenyl}-N-methyl-propionamide] | < 100 nM | 
14 | Cc1c(-c2ccnc(Nc3cccc(CCC(=O)N(C)C)c3)n2)c(C)n2c1C(=O)NCC2 [Example I-113, 3-{3-[4-(6,8-Dimethyl-1-oxo-1,2,3,4-tetrahydro-pyrrolo[1,2-a]pyrazin-7-yl)-pyrimidin-2-ylamino]-phenyl}-N,N-dimethyl-propionamide] | < 100 nM | 
15 | COc1cc(C(=O)NC2CCN(C)CC2)ccc1Nc1nccc(-c2c(C)c3n(c2C)CCNC3=O)n1 [Example I-114, 4-[4-(6,8-Dimethyl-1-oxo-1,2,3,4-tetrahydro-pyrrolo[1,2-a]pyrazin-7-yl)-pyrimidin-2-ylamino]-3-methoxy-N-(1-methyl-piperidin-4-yl)-benzamide] | < 10000 nM | 
16 | Cc1c(-c2ccnc(Nc3ccc(C(=O)NC4CCN(C)CC4)cc3)n2)c(C)n2c1C(=O)NCC2 [Example I-115, 4-[4-(6,8-Dimethyl-1-oxo-1,2,3,4-tetrahydro-pyrrolo[1,2-a]pyrazin-7-yl)-pyrimidin-2-ylamino]-N-(1-methyl-piperidin-4-yl)-benzamide] | < 100 nM | 
